Key:
[1] = biological target: T1, Mitogen-activated protein kinase 14 (Homo sapiens, UniProt Q16539)
Description: Binding affinity to full-length GST-tagged p38alpha after 2.5 hrs by TR-FRET competition binding assay

[2] = biological target: T1, Mitogen-activated protein kinase 14; remark: listed apart in the source
Description: Binding affinity to full-length GST-tagged p38alpha by surface plasmon resonance assay

T1 sequence (Q16539 whole entry): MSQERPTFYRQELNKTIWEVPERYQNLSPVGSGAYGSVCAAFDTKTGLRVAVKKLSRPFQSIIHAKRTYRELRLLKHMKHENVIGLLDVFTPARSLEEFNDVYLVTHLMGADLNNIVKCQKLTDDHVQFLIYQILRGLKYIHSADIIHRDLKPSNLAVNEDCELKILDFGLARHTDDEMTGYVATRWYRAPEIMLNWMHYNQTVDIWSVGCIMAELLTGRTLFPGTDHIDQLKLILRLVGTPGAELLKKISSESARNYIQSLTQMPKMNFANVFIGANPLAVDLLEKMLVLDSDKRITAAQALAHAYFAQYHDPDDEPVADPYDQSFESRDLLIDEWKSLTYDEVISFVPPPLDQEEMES

Compound | Ki [1] | Kd [2]
Cc1ccc(-n2nc(C(C)(C)C)cc2NC(=O)Nc2cccc3ccccc23)cc1C(=O)NCc1ccncn1 | 327 nM | 
Cc1ccc(-n2nc(C(C)(C)C)cc2NC(=O)Nc2cccc3ccccc23)cc1C(=O)NCCCN1CCOCC1 | 291 nM | 
Cc1ccc(-n2nc(C(C)(C)C)cc2NC(=O)Nc2cccc3ccccc23)cc1C(=O)N(CCCN)C1CCCCC1 | 89 nM | 
Cc1ccc(-n2nc(C(C)(C)C)cc2NC(=O)Nc2cccc3ccccc23)cc1C(=O)NCCN1CCN(C)CC1 | 140 nM | 
COCCCN1CCC(NC(=O)c2cc(-n3nc(C(C)(C)C)cc3NC(=O)Nc3cccc4ccccc34)ccc2C)CC1 | 336 nM | 
Cc1ccc(-n2nc(C(C)(C)C)cc2NC(=O)Nc2cccc3ccccc23)cc1C(=O)NCCNc1ccccc1 | 433 nM | 
Cc1ccc(-n2nc(C(C)(C)C)cc2NC(=O)Nc2cccc3ccccc23)cc1C(=O)NCC(CC(C)C)C(N)=O (stereo not drawn) | 786 nM | 
Cc1ccc(-n2nc(C(C)(C)C)cc2NC(=O)Nc2cccc3ccccc23)cc1C(=O)NC1CCN(CCN2CCOCC2)CC1 | 885 nM | 
COc1ccccc1CCNC(=O)c1cc(-n2nc(C(C)(C)C)cc2NC(=O)Nc2cccc3ccccc23)ccc1C | > 3900 nM | 
COc1ccc(CCNC(=O)c2cc(-n3nc(C(C)(C)C)cc3NC(=O)Nc3cccc4ccccc34)ccc2C)cc1 | > 3900 nM | 
Cc1ccc(-n2nc(C(C)(C)C)cc2NC(=O)Nc2cccc3ccccc23)cc1C(=O)N[C@@H]1CS(=O)(=O)C[C@H]1O | 112 nM | 
Cc1ccc(-n2nc(C(C)(C)C)cc2NC(=O)Nc2cccc3ccccc23)cc1C(=O)NCC#N | 252 nM | 55 nM
Cc1ccc(-n2nc(C(C)(C)C)cc2NC(=O)Nc2cccc3ccccc23)cc1C(=O)NCCCN1CCCC1 | 301 nM | 
Cc1ccc(-n2nc(C(C)(C)C)cc2NC(=O)Nc2cccc3ccccc23)cc1C(=O)N(CCCN)C(C)C | 312 nM | 
Cc1ccc(-n2nc(C(C)(C)C)cc2NC(=O)Nc2cccc3ccccc23)cc1C(=O)NC[C@@H](CO)C(C)C | 471 nM | 
CCN(CCN(C)C)C(=O)c1cc(-n2nc(C(C)(C)C)cc2NC(=O)Nc2cccc3ccccc23)ccc1C | 735 nM | 
Cc1ccc(-n2nc(C(C)(C)C)cc2NC(=O)Nc2cccc3ccccc23)cc1C(=O)NCCC1=CCCCC1 | > 3900 nM | 
